For one assay, the species on record is Rattus norvegicus. The assay is described as follows: Dose required to inhibit the prostate contractile response by 50% after challenge with selective alpha-1a agonist A61603 and duration of action was 1.5h in an in situ rat prostate model. Format: functional, Prostate gland.
Assay [1] deals with T1, Alpha-2B adrenergic receptor (Homo sapiens, UniProt P18089).
T1 sequence (P18089 whole entry): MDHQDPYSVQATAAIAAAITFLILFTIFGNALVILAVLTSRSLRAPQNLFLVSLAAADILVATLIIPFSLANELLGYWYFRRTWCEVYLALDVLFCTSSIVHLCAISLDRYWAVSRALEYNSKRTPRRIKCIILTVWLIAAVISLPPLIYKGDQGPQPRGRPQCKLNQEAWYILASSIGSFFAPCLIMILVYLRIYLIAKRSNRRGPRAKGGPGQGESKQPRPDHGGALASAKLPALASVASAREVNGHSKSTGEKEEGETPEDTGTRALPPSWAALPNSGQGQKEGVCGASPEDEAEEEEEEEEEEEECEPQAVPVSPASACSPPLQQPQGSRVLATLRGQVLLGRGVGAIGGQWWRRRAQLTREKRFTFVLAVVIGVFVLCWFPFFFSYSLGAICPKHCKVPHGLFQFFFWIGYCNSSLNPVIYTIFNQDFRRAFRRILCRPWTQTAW
Description: […] inhibitory effect against alpha-2b Adrenergic receptor.

In assay [2] the target is T2, Alpha-1D adrenergic receptor (Homo sapiens, UniProt P25100).
T2 sequence (P25100 whole entry): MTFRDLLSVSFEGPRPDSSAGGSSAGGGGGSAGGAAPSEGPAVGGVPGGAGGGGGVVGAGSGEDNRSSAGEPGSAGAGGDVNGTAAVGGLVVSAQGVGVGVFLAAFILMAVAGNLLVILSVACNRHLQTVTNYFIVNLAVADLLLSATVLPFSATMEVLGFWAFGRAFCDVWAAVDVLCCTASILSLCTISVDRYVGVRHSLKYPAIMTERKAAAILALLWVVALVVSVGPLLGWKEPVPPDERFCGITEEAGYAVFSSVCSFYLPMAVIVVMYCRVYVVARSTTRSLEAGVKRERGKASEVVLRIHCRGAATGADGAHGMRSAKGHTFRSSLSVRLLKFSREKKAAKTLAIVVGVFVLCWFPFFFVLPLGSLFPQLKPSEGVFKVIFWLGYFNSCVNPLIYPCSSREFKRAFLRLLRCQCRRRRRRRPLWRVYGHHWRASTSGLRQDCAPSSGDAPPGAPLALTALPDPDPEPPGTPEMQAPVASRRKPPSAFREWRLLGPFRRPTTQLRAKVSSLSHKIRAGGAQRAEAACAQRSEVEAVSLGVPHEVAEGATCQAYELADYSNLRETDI
Description: In vitro antagonism at Alpha-1D adrenergic receptor. The class given is functional.

Assay [3] has as its target T3, Alpha-1B adrenergic receptor (Homo sapiens, UniProt P35368).
T3 sequence (P35368 whole entry): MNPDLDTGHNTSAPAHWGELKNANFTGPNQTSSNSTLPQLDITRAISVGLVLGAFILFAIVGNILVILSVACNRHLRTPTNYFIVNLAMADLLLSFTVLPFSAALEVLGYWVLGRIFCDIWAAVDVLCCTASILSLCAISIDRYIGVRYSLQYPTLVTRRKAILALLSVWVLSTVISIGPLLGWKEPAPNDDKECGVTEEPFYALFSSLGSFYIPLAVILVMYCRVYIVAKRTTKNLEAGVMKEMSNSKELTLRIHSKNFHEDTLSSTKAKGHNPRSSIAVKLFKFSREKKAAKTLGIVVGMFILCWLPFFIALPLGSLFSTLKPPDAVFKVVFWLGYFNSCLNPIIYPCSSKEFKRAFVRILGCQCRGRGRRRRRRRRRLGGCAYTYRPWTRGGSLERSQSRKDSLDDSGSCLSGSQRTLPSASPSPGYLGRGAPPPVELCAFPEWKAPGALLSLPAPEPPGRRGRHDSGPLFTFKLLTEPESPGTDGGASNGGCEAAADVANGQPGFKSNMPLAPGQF
The assay is described as follows: In vitro antagonism at Alpha-1B adrenergic receptor. Format: functional.

For assay [4], the target named is T4, Alpha-2C adrenergic receptor (Homo sapiens, UniProt P18825).
T4 sequence (P18825 whole entry): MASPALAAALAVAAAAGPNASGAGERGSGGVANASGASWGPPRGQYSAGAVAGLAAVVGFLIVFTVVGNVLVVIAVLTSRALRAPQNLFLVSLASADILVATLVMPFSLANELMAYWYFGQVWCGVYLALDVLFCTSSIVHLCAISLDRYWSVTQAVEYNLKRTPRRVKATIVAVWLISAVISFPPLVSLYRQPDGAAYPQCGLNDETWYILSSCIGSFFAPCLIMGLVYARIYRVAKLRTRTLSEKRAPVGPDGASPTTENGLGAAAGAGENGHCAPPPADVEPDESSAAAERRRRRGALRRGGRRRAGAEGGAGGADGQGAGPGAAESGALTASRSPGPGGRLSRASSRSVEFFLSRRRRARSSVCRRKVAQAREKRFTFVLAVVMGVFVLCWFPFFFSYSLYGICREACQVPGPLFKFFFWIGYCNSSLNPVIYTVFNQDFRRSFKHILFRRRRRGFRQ
The assay is described as follows: […] inhibitory effect against Alpha-2C adrenergic receptor.

For assay [5], the target named is T5, Alpha-2A adrenergic receptor (Homo sapiens, UniProt P08913).
T5 sequence (P08913 whole entry): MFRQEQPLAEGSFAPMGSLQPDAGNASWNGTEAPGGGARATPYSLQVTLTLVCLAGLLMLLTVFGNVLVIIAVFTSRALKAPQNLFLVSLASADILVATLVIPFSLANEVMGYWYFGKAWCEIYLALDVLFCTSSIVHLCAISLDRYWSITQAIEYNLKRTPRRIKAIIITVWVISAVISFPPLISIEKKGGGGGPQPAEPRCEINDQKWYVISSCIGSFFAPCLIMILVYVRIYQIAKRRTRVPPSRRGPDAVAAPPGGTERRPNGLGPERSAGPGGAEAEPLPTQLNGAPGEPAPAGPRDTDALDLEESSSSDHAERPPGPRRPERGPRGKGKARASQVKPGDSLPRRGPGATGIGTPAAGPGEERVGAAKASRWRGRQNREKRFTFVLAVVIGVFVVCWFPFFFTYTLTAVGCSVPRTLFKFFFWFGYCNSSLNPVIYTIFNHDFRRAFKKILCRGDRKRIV
Description: […] inhibitory effect against Alpha-2A adrenergic receptor.

For assay [6], the target named is T6, Alpha-1A adrenergic receptor (Homo sapiens, UniProt P35348).
T6 sequence (P35348 whole entry): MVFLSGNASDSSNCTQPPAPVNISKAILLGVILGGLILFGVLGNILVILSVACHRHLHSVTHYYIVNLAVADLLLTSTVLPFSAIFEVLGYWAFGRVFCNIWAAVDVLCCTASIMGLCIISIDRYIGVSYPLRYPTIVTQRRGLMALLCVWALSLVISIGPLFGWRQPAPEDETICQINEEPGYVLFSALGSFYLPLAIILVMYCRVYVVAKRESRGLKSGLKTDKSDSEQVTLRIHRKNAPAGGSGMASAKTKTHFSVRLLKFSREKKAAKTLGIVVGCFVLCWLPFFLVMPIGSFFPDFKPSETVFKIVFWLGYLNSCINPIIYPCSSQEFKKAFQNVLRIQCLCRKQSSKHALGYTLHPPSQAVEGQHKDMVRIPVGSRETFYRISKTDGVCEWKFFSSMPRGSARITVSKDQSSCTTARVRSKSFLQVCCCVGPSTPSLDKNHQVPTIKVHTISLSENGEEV
The assay is described as follows: In vitro antagonism at Alpha-1A adrenergic receptor. Format: functional.

A further assay deals with Histamine H1 receptor (Homo sapiens, UniProt P35367). The assay is described as follows: Selectivity screen against human Histamine H1 receptor.
Sequence of Histamine H1 receptor (P35367 whole entry): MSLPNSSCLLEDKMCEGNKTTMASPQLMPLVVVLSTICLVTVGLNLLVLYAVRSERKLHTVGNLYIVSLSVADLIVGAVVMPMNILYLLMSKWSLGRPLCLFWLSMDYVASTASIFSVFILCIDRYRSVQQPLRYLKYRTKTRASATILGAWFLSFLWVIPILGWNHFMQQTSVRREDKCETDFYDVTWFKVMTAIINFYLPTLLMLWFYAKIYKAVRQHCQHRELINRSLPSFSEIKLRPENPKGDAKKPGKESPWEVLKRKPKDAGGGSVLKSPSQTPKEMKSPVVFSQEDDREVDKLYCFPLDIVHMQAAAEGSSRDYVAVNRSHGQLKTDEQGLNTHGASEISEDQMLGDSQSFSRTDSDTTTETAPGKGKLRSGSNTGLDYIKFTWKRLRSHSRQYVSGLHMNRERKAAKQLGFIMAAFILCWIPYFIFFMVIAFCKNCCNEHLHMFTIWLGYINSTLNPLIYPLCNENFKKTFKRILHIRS

`CC1=C(C(=O)NCCCN2CCC(C#N)(c3ccc(F)cc3F)CC2)[C@@H](c2ccc(F)c(F)c2)CC(=O)N1`: the AD50 in the assay filed under Rattus norvegicus came out at 0.017 mg/kg. The Ki (usually the equilibrium dissociation constant of an inhibitor or competing ligand from its target) worked out at 0.531 µM in assay [1]; 0.588 µM in assay [2]; 0.805 µM in assay [3]; 2 µM in assay [4]; 1.97 µM in assay [5]; 0.001 µM in assay [6]. Besides, the Ki on Histamine H1 receptor came to 0.108 µM.

The record behind these values is ChEMBL document CHEMBL1133242, “Selective alpha1a adrenergic receptor antagonists based on 4-aryl-3,4-dihydropyridine-2-ones” (Bioorg Med Chem Lett, 2000).
